Laboratory results reported in PubChem BioAssay (NCI).
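All cell lines were grown in 96-well plates and treated with compound for 48 hours. TGI is the concentration that stops growth completely.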

Tests used:
Assay in all cases: growth of human tumour cells (NCI), 48 h
[1] = tested on: 786-0 renal
[2] = tested on: A498 renal
[3] = tested on: A549 NSCLC
[4] = tested on: ACHN renal
[5] = tested on: CAKI-1 renal
[6] = tested on: CCRF-CEM leukemia
[7] = tested on: COLO 205 colon
[8] = tested on: DU-145 prostate
[9] = tested on: EKVX NSCLC
[10] = tested on: HCC-2998 colon
[11] = tested on: HCT-116 colon
[12] = tested on: HCT-15 colon
[13] = tested on: HL-60(TB) leukemia
[14] = tested on: HOP-62 NSCLC
[15] = tested on: HOP-92 NSCLC
[16] = tested on: HS 578T breast
[17] = tested on: HT29 colon
[18] = tested on: IGROV1 ovarian
[19] = tested on: K-562 leukemia
[20] = tested on: KM12 colon
[21] = tested on: LOX IMVI melanoma
[22] = tested on: M14 melanoma
[23] = tested on: MALME-3M melanoma
[24] = tested on: MCF7 breast
[25] = tested on: MDA-MB-231 breast
[26] = tested on: MDA-MB-435
[27] = tested on: MDA-N
[28] = tested on: MOLT-4 leukemia
[29] = tested on: NCI-H226 lung
[30] = tested on: NCI-H23 lung
[31] = tested on: NCI-H460 lung
[32] = tested on: NCI-H522 lung
[33] = tested on: NCI/ADR-RES ovarian
[34] = tested on: OVCAR-3 ovarian
[35] = tested on: OVCAR-4 ovarian
[36] = tested on: OVCAR-5 ovarian
[37] = tested on: OVCAR-8 ovarian
[38] = tested on: PC-3 prostate
[39] = tested on: RPMI-8226 leukemia
[40] = tested on: RXF 393 renal
[41] = tested on: SF-268 CNS
[42] = tested on: SF-295 CNS
[43] = tested on: SF-539 CNS
[44] = tested on: SK-MEL-2 melanoma
[45] = tested on: SK-MEL-28 melanoma
[46] = tested on: SK-MEL-5 melanoma
[47] = tested on: SK-OV-3 ovarian
[48] = tested on: SN12C renal
[49] = tested on: SNB-19 CNS
[50] = tested on: SNB-75 CNS
[51] = tested on: SR leukemia
[52] = tested on: SW-620 colon
[53] = tested on: TK-10 renal
[54] = tested on: U251 CNS
[55] = tested on: UACC-257 melanoma
[56] = tested on: UACC-62 melanoma
[57] = tested on: UO-31 renal
[58] = tested on: T-47D breast

O=S(=O)(c1ccc(NC2=NC(c3ccc(O)cc3)(c3ccccc3O)c3ccccc32)cc1)c1ccc(NC2=NC(c3ccc(O)cc3)(c3ccccc3O)c3ccccc32)cc1 (configuration not stated)
TGI [1]: > 28.8 µM
TGI [2]: 44.8 µM
TGI [3]: > 100 µM
TGI [4]: > 100 µM
TGI [5]: 59.4 µM
TGI [6]: > 100 µM
TGI [7]: > 33.6 µM
TGI [8]: > 35.4 µM
TGI [9]: > 52.6 µM
TGI [10]: 15.4 µM
TGI [11]: 25.2 µM
TGI [12]: > 81 µM
TGI [13]: 5.09 µM
TGI [14]: > 100 µM
TGI [15]: > 70.6 µM
TGI [16]: > 100 µM
TGI [17]: > 52.7 µM
TGI [18]: 22.2 µM
TGI [19]: > 100 µM
TGI [20]: > 21.4 µM
TGI [21]: > 100 µM
TGI [22]: > 29.2 µM
TGI [23]: 13.1 µM
TGI [24]: > 100 µM
TGI [25]: > 44.6 µM
TGI [26]: > 24.6 µM
TGI [27]: > 23.1 µM
TGI [28]: 60.1 µM
TGI [29]: 19.2 µM
TGI [30]: 8.01 µM
TGI [31]: 47.5 µM
TGI [32]: 4.76 µM
TGI [33]: > 100 µM
TGI [34]: > 100 µM
TGI [35]: 13.7 µM
TGI [36]: > 73.6 µM
TGI [37]: > 40.7 µM
TGI [38]: > 58.7 µM
TGI [39]: > 100 µM
TGI [40]: > 100 µM
TGI [41]: > 44.5 µM
TGI [42]: > 53.2 µM
TGI [43]: > 100 µM
TGI [44]: 22.9 µM
TGI [45]: > 28 µM
TGI [46]: > 100 µM
TGI [47]: > 73.3 µM
TGI [48]: > 29.9 µM
TGI [49]: > 100 µM
TGI [50]: > 27.5 µM
TGI [51]: > 49.6 µM
TGI [52]: > 100 µM
TGI [53]: > 100 µM
TGI [54]: > 100 µM
TGI [55]: > 47.9 µM
TGI [56]: > 100 µM
TGI [57]: > 100 µM

C=C/C(C)=C\CC1[C@](C)(O)CC[C@H]2C(C)(C)C(=O)CC[C@]12C (some centres not stated)
TGI [1]: > 100 µM
TGI [2]: > 100 µM
TGI [3]: > 100 µM
TGI [4]: > 100 µM
TGI [5]: > 100 µM
TGI [6]: > 100 µM
TGI [7]: > 100 µM
TGI [8]: > 100 µM
TGI [9]: > 100 µM
TGI [11]: > 100 µM
TGI [12]: > 100 µM
TGI [13]: 60 µM
TGI [15]: > 100 µM
TGI [16]: > 100 µM
TGI [17]: > 100 µM
TGI [18]: > 100 µM
TGI [19]: > 100 µM
TGI [20]: > 100 µM
TGI [21]: > 100 µM
TGI [22]: > 100 µM
TGI [23]: > 100 µM
TGI [24]: > 100 µM
TGI [25]: > 100 µM
TGI [26]: > 100 µM
TGI [27]: > 100 µM
TGI [28]: 79.3 µM
TGI [29]: > 100 µM
TGI [30]: > 100 µM
TGI [31]: > 100 µM
TGI [32]: > 100 µM
TGI [33]: > 100 µM
TGI [34]: > 100 µM
TGI [35]: > 100 µM
TGI [36]: > 100 µM
TGI [37]: > 100 µM
TGI [38]: > 100 µM
TGI [39]: > 100 µM
TGI [40]: > 100 µM
TGI [41]: > 100 µM
TGI [42]: > 100 µM
TGI [43]: > 100 µM
TGI [44]: > 100 µM
TGI [45]: > 100 µM
TGI [46]: > 100 µM
TGI [48]: > 100 µM
TGI [49]: > 100 µM
TGI [50]: > 100 µM
TGI [51]: 66.5 µM
TGI [52]: > 100 µM
TGI [53]: > 100 µM
TGI [54]: > 100 µM
TGI [55]: > 100 µM
TGI [56]: > 100 µM
TGI [57]: 57 µM

CCC1(c2ccccc2)Sc2ccccc2-n2cccc2C1=O (configuration not stated)
TGI [1]: > 10 µM
TGI [3]: > 10 µM
TGI [5]: > 10 µM
TGI [6]: > 10 µM
TGI [7]: > 10 µM
TGI [8]: > 10 µM
TGI [9]: > 10 µM
TGI [10]: > 10 µM
TGI [12]: > 10 µM
TGI [13]: > 10 µM
TGI [14]: > 10 µM
TGI [17]: > 10 µM
TGI [18]: > 10 µM
TGI [19]: > 10 µM
TGI [20]: > 10 µM
TGI [22]: > 10 µM
TGI [23]: > 10 µM
TGI [24]: > 10 µM
TGI [25]: > 10 µM
TGI [27]: > 10 µM
TGI [28]: > 10 µM
TGI [30]: > 10 µM
TGI [37]: > 10 µM
TGI [38]: > 10 µM
TGI [39]: > 10 µM
TGI [40]: > 10 µM
TGI [42]: > 10 µM
TGI [45]: > 10 µM
TGI [46]: > 10 µM
TGI [47]: > 10 µM
TGI [48]: > 10 µM
TGI [50]: > 10 µM
TGI [51]: > 10 µM
TGI [52]: > 10 µM
TGI [58]: > 10 µM
TGI [53]: > 10 µM
TGI [55]: > 10 µM
TGI [56]: > 10 µM

CC1(C)N/C(=C\C=O)C(C)(C)N1O
TGI [3]: > 100 µM
TGI [4]: > 100 µM
TGI [5]: > 100 µM
TGI [6]: > 100 µM
TGI [7]: > 100 µM
TGI [8]: > 100 µM
TGI [9]: > 100 µM
TGI [10]: > 100 µM
TGI [11]: > 100 µM
TGI [12]: > 100 µM
TGI [13]: > 100 µM
TGI [14]: > 100 µM
TGI [15]: > 100 µM
TGI [16]: > 100 µM
TGI [17]: > 100 µM
TGI [18]: > 100 µM
TGI [19]: > 100 µM
TGI [20]: > 100 µM
TGI [21]: > 100 µM
TGI [22]: > 100 µM
TGI [23]: > 100 µM
TGI [24]: > 100 µM
TGI [25]: > 100 µM
TGI [26]: > 100 µM
TGI [27]: > 100 µM
TGI [28]: > 100 µM
TGI [29]: > 100 µM
TGI [30]: > 100 µM
TGI [31]: > 100 µM
TGI [33]: > 100 µM
TGI [34]: > 100 µM
TGI [35]: > 100 µM
TGI [36]: > 100 µM
TGI [37]: > 100 µM
TGI [38]: > 100 µM
TGI [39]: > 100 µM
TGI [40]: > 100 µM
TGI [41]: > 100 µM
TGI [42]: > 100 µM
TGI [43]: > 100 µM
TGI [44]: > 100 µM
TGI [45]: > 100 µM
TGI [46]: > 100 µM
TGI [47]: > 100 µM
TGI [48]: > 100 µM
TGI [49]: > 100 µM
TGI [51]: > 100 µM
TGI [52]: > 100 µM
TGI [53]: > 100 µM
TGI [54]: > 100 µM
TGI [55]: > 100 µM
TGI [56]: > 100 µM
TGI [57]: > 100 µM
